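In this assay, cells in 96-well plates receive the compound at five concentrations for 48 hours. Endpoints are linearly interpolated between the surrounding concentrations. The concentration for 50% growth inhibition is given as GI50. TGI: total growth inhibition.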
What was measured:
Test in all cases: NCI-60 cell line screen, 48 h
LXFL 529 NSCLC = test system: LXFL 529 NSCLC
M19-MEL melanoma = test system: M19-MEL melanoma
RPMI-8226 leukemia = test system: RPMI-8226 leukemia
DMS 273 small cell lung = test system: DMS 273 small cell lung
COLO 205 colon = test system: COLO 205 colon
MDA-MB-231 breast = test system: MDA-MB-231 breast
HS 578T breast = test system: HS 578T breast
T-47D breast = test system: T-47D breast
PC-3 prostate = test system: PC-3 prostate
NCI/ADR-RES ovarian = test system: NCI/ADR-RES ovarian
BT-549 breast = test system: BT-549 breast
MCF7 breast = test system: MCF7 breast
DMS 114 small cell lung = test system: DMS 114 small cell lung

Structure (SMILES) | TGI (LXFL 529 NSCLC) | TGI (M19-MEL melanoma) | TGI (RPMI-8226 leukemia) | TGI (DMS 273 small cell lung) | TGI (COLO 205 colon) | TGI (MDA-MB-231 breast) | TGI (HS 578T breast) | TGI (T-47D breast) | TGI (PC-3 prostate) | TGI (NCI/ADR-RES ovarian) | TGI (BT-549 breast) | TGI (MCF7 breast) | TGI (DMS 114 small cell lung) | GI50 (MDA-MB-231 breast) | GI50 (HS 578T breast) | GI50 (T-47D breast) | GI50 (PC-3 prostate) | GI50 (NCI/ADR-RES ovarian) | GI50 (BT-549 breast) | GI50 (COLO 205 colon)
O=C(O)C1=NNC(C(=O)O)=NN1 | > 100 µM | > 100 µM | > 100 µM | > 100 µM | > 100 µM | – | – | – | – | – | – | – | – | – | – | – | – | – | – | –
CC(CO)(CO)Nc1ncnc2ccccc12 | – | – | – | – | – | > 100 µM | > 100 µM | > 100 µM | > 100 µM | > 100 µM | > 100 µM | – | – | – | – | – | – | – | – | –
COc1cc(C)c2c(=O)c3c(oc2c1)C(=O)c1c(O)c(OC)cc(O)c1C3=O | – | 4.04 µM | 4.48 µM | 1.8 µM | > 43.4 µM | – | – | – | – | 2.62 µM | – | 9.34 µM | 1.72 µM | – | – | – | – | – | – | –
c1ccc2sc(SCN(C3CCCCC3)C3CCCCC3)nc2c1 | – | – | – | – | – | > 100 µM | > 100 µM | 49.5 µM | > 100 µM | > 100 µM | > 100 µM | – | – | – | – | – | – | – | – | –
COc1cc2c(cc1Oc1ccc(OC)c3c1CC1c4c(cc(OC)c(OC)c4-3)CCN1C)CC1c3c(cc(OC)c(OC)c3-2)CCN1C (stereo unspecified) | – | 3.37 µM | 3.97 µM | 7.06 µM | 2.95 µM | – | – | – | – | 18.3 µM | – | 8.43 µM | – | – | – | – | – | – | – | –
O=c1cc(O)c2ccccc2o1 | – | – | > 100 µM | – | > 100 µM | > 100 µM | > 100 µM | > 100 µM | > 100 µM | > 100 µM | > 100 µM | > 100 µM | – | – | – | – | – | – | – | –
Fc1ccc(-c2nnc3sc(COc4ccccc4Cl)nn23)cc1Cl | – | – | – | – | > 100 µM | > 100 µM | 91.6 µM | > 100 µM | > 100 µM | > 100 µM | 64.4 µM | – | – | 44.5 µM | 35.2 µM | 32.8 µM | 30.7 µM | 40.8 µM | 22.9 µM | 43.7 µM
COc1c(Cl)cc(S(=O)O)cc1Cl | > 100 µM | > 100 µM | – | – | – | – | – | – | – | – | – | – | > 100 µM | – | – | – | – | – | – | –
Cn1c(Sc2ccc(-c3cccnc3)n2C)ccc1-c1cccnc1 | – | – | 23.4 µM | – | 38 µM | 37.1 µM | 9.76 µM | 44.2 µM | 31 µM | 71.3 µM | 49.8 µM | 45.3 µM | – | – | – | – | – | – | – | –
Nc1nnc(N)n1NC(=O)C(=O)Nc1ccc([N+](=O)[O-])cc1 | – | > 100 µM | > 100 µM | > 100 µM | > 100 µM | – | – | – | – | – | – | – | > 100 µM | – | – | – | – | – | – | –
CCOC(=O)NC | – | – | > 100 µM | – | > 100 µM | > 100 µM | > 100 µM | > 100 µM | > 100 µM | > 100 µM | > 100 µM | > 100 µM | – | – | – | – | – | – | – | –
NC(=O)Nc1cc(O)ccc1N=Nc1ccc(S(=O)(=O)Nc2ccccn2)cc1 | > 100 µM | > 100 µM | > 100 µM | > 100 µM | > 100 µM | – | – | – | – | – | – | – | > 100 µM | – | – | – | – | – | – | –
CC1(O)CC23CC1CCC2(C)C12CCCC(C)(C(=O)O1)C2CC3O (stereo unspecified) | – | – | – | – | > 100 µM | > 100 µM | > 100 µM | > 100 µM | > 100 µM | > 100 µM | > 100 µM | > 100 µM | – | – | – | – | – | – | – | –
Cc1cc(=O)oc2c1cc(OCC(=O)OCCN1CCCCC1)c1occ(C)c12 | > 100 µM | > 100 µM | > 100 µM | > 100 µM | – | – | – | – | – | – | – | – | > 100 µM | – | – | – | – | – | – | –
CC(C)=CCC[C@](C)(O[C@@H]1O[C@H](CO)[C@@H](O)[C@H](O)[C@H]1O)[C@H]1CC[C@]2(C)[C@@H]1[C@H](O)C[C@@H]1[C@@]3(C)CC[C@H](O)C(C)(C)[C@@H]3[C@@H](O[C@@H]3O[C@H](CO)[C@@H](O)[C@H](O)[C@H]3O)C[C@]12C | – | – | > 100 µM | – | > 100 µM | > 100 µM | > 100 µM | > 100 µM | > 100 µM | – | > 100 µM | > 100 µM | – | – | – | – | – | – | – | –

Reference: PubChem BioAssay (NCI)
